Patent US20250257064A1, “TRIFLUOROMETHYL-SUBSTITUTED SULFONAMIDE AS BCL-2-SELECTIVE INHIBITOR” (Chia Tai Tianqing Pharmaceutical Group Co., Ltd., priority 2018, published 2025)

Legend:
BCL-XL/BAK = target: T1, BCL-XL/BAK (Homo sapiens, UniProt Q07817); experiment: Screening on inhibitory activity for BCL-XL/BAK binding (Cisbio HTRF kit)
T1 construct: purchased Cisbio
Summary of the method: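 Tag1-BCL-XL and Tag2-BAK (2 nM and 80 nM before mixing) were combined with compounds at final 2000–0.488 nM (4-fold, 7 points, duplicates) for 15 min at 25° C. Eu3+ anti-Tag1 and XL665 anti-Tag2 were then added for ≥2 h at 25° C. HTRF (620/665 nm) gave IC50 by four-parameter fit.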

[1] = In vitro stability in mouse liver microsomes; format: in vitro ADME; settings: 1 μM
Protocol: Experimental Example 3: In Vitro Stability in Liver Microsome
300 μL of the final incubation system contains 30 μL of liver microsomes (protein concentration: 5 mg/mL), 30 μL of NADPH+MgCl2, 3 μL of the test compound (in acetonitrile), and 237 μL of PBS buffer (pH 7.4), wherein the proportion of the organic solvent (acetonitrile) is 1% (volume ratio). Two duplicate samples were prepared for each specie (mouse, rat and human), and each sample was 0.3 mL. Each tube which was added with 270 μL of a mixed solution of substrate and enzyme, and NADPH, after being pre-incubated at 37° C. for 5 min, was added with 30 μL of NADPH+MgCl2 and mixed. Then 50 μL of the mixture was taken at 0 min, 15 min, 30 min and 60 min, and added with 300 μL of glacial acetonitrile containing an internal standard to terminate the reaction.
50 μL of the incubated sample was added with 300 μL of glacial acetonitrile containing an internal standard (20 ng/mL diazepam) for precipitation, vortexed for 5 min, and centrifuged (13,000 rpm, 20° C.) for 10 min. 70 μL of supernatant was taken and diluted with 70 μL of ultrapure water. After being mixed well, 1 μL of the resulting sample was injected for analysis.

[2] = system: human B-cell leukemia RS4;11 subcutaneous xenograft; experiment: Pharmacodynamics in human B-cell leukemia RS4;11 subcutaneous xenograft model; format: in vivo, NOD/SCID mice; settings: Day 17 after the end of administration
From the text: Experimental Example 5: Pharmacodynamics of Compounds in Human B-Cell Leukemia RS4; 11 Subcutaneous Xenograft Model
NOD/SCID mice, female, 9-10 weeks old (ages upon tumor cell grafting), body weight of 16.3-22.0 g, purchased from Beijing AniKeeper Biotech Co., Ltd.; production license number: SCXK (Jing) 2017-0006, and animal certification number: 11402400013155. Breeding environment: SPF grade. Mice were grafted subcutaneously on the right anterior dorsal side with 1×10^7 RS4;11 cells. The day of grafting was defined as day 0. When the mean tumor volume was 240 mm^3, the mice were randomly grouped according to the tumor size. The administration was performed as per Table 5 below.
Clinical symptoms observed during the experiment were recorded in the raw data. The calculation formula for tumor volume: Tumor volume (mm^3)=½×(a×b^2) (where a represents long diameter and b represents short diameter). The data were collected using StudyDirector™ software (version No. 3.1.399.19, supplier: Studylog System, Inc., S.San Francisco, CA, USA) in the experiment, including measurements of the long and short diameters of the tumor and weighing results of the animals. The raw data obtained from a balance and a vernier caliper were directly imported into the software, and any change in the data was recorded. Relative tumor proliferation rate (T/C %) refers to the percentage of the relative tumor volume or tumor weight of the treatment and control groups at a certain time point. The calculation formula is as follows:
T/C %=TRTV/CRTV×100% (TRTV: mean RTV for treatment group; CRTV: mean RTV for vehicle control group; RTV=Vt/V0, where V0 is the tumor volume of the animal upon grouping, and Vt is the tumor volume of the animal after treatment).
(T and C are the relative tumor volume (RTV) or tumor weight (TW) at a particular time point for the treatment and control groups, respectively).
All experimental results were expressed as mean tumor volume±SEM (standard error of mean). The relative tumor volume of the treatment group was compared with that of the control group for any significant difference by the independent sample T test. All data were analyzed using SPSS 18.0. p<0.05 was defined as a significant difference.

[3] = Pharmacokinetics in beagle dogs; format: in vivo; settings: male, dog, plasma, po, intragastric 2.5 mg/kg
Protocol: 4.2 Pharmacokinetics in Beagle Dogs
3 male beagle dogs weighing 9-12 kg were intragastrically administered with the test compounds at a dosage of 2.5 mg/kg after adaptive feeding for a period of time.
The animals to be tested (male beagle dogs) were fasted for 12 h before administration and fed 4 h after administration, and water was freely drunk before, after and during the experiment.
After intragastric administration, about 0.5 mL of blood was collected from forelimb vein at 0.25 h (15 min), 0.5 h (30 min), 1 h, 1.5 h, 2 h, 4 h, 6 h, 8 h, 10 h, 24 h, 30 h, 48 h and 72 h, and placed in an EDTA-K2 anticoagulation tube. Blood samples were transferred to a centrifuge within 30 min, and centrifuged at 4000 rpm for 10 min at 4° C. to separate the plasma. All plasma samples were collected and immediately stored at −20° C. for testing.
50 μL of the plasma sample to be tested was added with 300 μL of acetonitrile solution containing an internal standard (20 ng/mL diazepam), shaken and mixed well for 5 min, and centrifuged at 13,000 rpm for 10 min. 75 μL of supernatant was taken and diluted with 75 μL of ultrapure water. After being mixed well, 1 μL of the resulting sample was taken for LC/MS/MS determination, and a chromatogram was recorded.
Oral exposure of the compounds disclosed herein was evaluated by in vivo pharmacokinetic experiments in beagle dogs.

T1 sequence (Q07817 whole entry, species assumed): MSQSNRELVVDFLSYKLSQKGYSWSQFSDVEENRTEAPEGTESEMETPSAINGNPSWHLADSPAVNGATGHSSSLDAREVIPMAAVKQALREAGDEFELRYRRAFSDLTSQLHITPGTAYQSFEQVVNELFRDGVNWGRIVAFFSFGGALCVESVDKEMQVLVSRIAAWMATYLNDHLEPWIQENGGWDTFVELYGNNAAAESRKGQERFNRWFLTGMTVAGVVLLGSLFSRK

Structure (SMILES) | IC50 (BCL-XL/BAK) [nM] | Mouse Residual content after 60 min (%) [1] [%] | Relative tumor volume (x ± S) ([2]; 25 mg/kg p.o. one dose) | T/C (%) ([2]; 25 mg/kg p.o. one dose) | TGI (%) ([2]; 25 mg/kg p.o. one dose) | Tumor volume (x ± S) ([2]; 25 mg/kg p.o. one dose) [mm^3] | Relative tumor volume (x ± S) ([2]; 50 mg/kg p.o. one dose) | T/C (%) ([2]; 50 mg/kg p.o. one dose) | TGI (%) ([2]; 50 mg/kg p.o. one dose) | Tumor volume (x ± S) ([2]; 50 mg/kg p.o. one dose) [mm^3] | AUC(0-inf) [3] [ng·h/mL] | Cmax [3] [ng/mL] | MRT last [3] [h] | Tmax [3] [h] | AUC(0-t) ([3]; read-out: AUC0-72 h) [ng·h/mL] | half-life ([3]; read-out: T½ (converted)) [h]
CC1(C)CCC(CN2CCN(c3ccc(C(=O)NS(=O)(=O)c4ccc(NCC5CCOCC5)c([N+](=O)[O-])c4)c(Oc4cnc5[nH]ccc5c4)c3)CC2)=C(c2ccc(C(F)(F)F)cc2Cl)C1 [Compound 1-1, 4-(4-{[2-(2-chloro-4-trifluoromethylphenyl)-4,4-dimethylcyclohex-1-enyl]methyl}-piperazin-1-yl)-N-({3-nitro-4-[(tetrahydro-2H-pyran-4-ylmethyl)amino]phenyl}sulfonyl)-2-(1H-pyrrolo[2,3-b]pyridin-5-yloxy)-benzamide] | 133 | 78.9 | 4.39 ± 0.83 | 51.5 | 48.5 | 1024.97 ± 160.59 | 1.92 ± 0.36 | 22.5 | 77.5 | 465.78 ± 95.68 |  |  |  |  |  | 
CC1(C)CCC(CN2CCN(c3ccc(C(=O)NS(=O)(=O)c4ccc(NC[C@H]5COCCO5)c([N+](=O)[O-])c4)c(Oc4cnc5[nH]ccc5c4)c3)CC2)=C(c2ccc(C(F)(F)F)cc2Cl)C1 [Compound 8-1] | 155 | 73.9 |  | 29.8 | 70.2 | 600.39 ± 32.88 |  |  |  |  | 27700 ± 14200 | 1430 ± 769 | 17.2 ± 1.62 | 3.33 ± 1.16 | 26300 ± 13600 | 19.5 ± 1.64
